Experimental data published in patent US20210030025A1, “BLOOD-FREE DIET FOR REARING MALARIA MOSQUITO VECTORS” (UNIVERSIDADE NOVA DE LISBOA-INSTITUTO DE HIGIENE E MEDICINA …, priority 2018, published 2021).

Tested on: vitellogenin (Vg) transcription in the female mosquito fatbody
Test: Vg expression 24 h post-feeding on diets (q-RT-PCR)
Format: in vivo, Anopheles coluzzii
Conditions: ΔΔCT method
Description: FIG. 2a. Effects of the fresh-blood-free diets on oogenesis: Expression of vitellogenin precursor. Relative expression was determined using the ΔΔCT method as fold change to mosquitoes fed on the ILD, where RLD-NoP and ILD-NoP represent liquid diet compositions not supplemented with peptides, blood represent conventional blood diets and the remaining RLDs and ILDs represent respectively Rich Liquid Diet and Initial Liquid Diet supplemented with the correspondent indicated peptide P1 to P6.
Oogenesis was assessed by changes in Vg expression 24 h post-feeding (FIG. 2a). Vg expression levels in the fatbodies was quantified using the ΔΔCT method a) after a blood meal, b) after microinjection with the different peptides, and c) after being fed on the various artificial diets as described in section 4. […]
Quantitative Real-time Polymerase Chain Reaction (q-RT-PCR) analysis was used to quantify the expression of Vitellogenin-1 precursor (Vg), a protein biomarker of mosquito oogenesis initiation. Vg expression levels in the fatbodies were quantified using the ΔΔCT method a) after a blood meal, b) after microinjection with the different peptides, and c) after being fed on the various artificial diets. […]
Oogenesis was assessed by changes in Vg expression 24 h post-feeding mosquitoes with the artificial diets of Examples 1 and 2 and conventional vertebrate blood diet (FIG. 2a). […]

Glucagon-like peptide 2 (HADGSFSDEMNTILDNLAARDFINWLIQTKITD; Glucagon-like peptide 2; UniProt P01275 146-178, looked up) [Diet P2, glucagon-like peptide 2 (1-33) (human), from Bachem]
Vg transcript levels after feeding: significantly increased VTG expression
